Measured values published in ChEMBL document CHEMBL5252612, “A novel selective estrogen receptor degrader induces cell cycle arrest in breast cancer via ERα degradation and the autophagy-lysosome pathway” (Bioorg Med Chem, 2023).
Calls of active or inactive are those of the source. No cut-off for these calls is given here.

Legend:
[1] = Anticancer activity against ER-alpha positive human LCC2 cells assessed as reduction in cell viability measured after 48 hrs by CCK8 assay; type: functional, cell-based; conditions: lcc2
T47D [2] = assay: Induction of autophagy in human T47D cells assessed as increase in LC3 protein expression by western blot analysis; type: functional, cell-based
T47D [3] = assay: Induction of autophagy in human T47D cells assessed as increase in autophagosome number by measuring LC3 puncta formation by immunofluorescence assay; type: functional, cell-based
T47D [4] = assay: Induction of autophagy in human T47D cells assessed as increase in lysosome number by LysoTracker dye based confocal microscopy; type: functional, cell-based
MCF7 = assay: Antitumor activity against human MCF7 cells xenografted in BALB/c nude mouse assessed as reduction in tumor volume at 4 mg/kg, ip administered every other day by caliper analysis; type: functional, organism-based
T47D [5] = assay: Induction of autophagy in human T47D cells assessed as downregulation of MYC protein expression incubated for 24 hrs by western blot analysis; type: functional, cell-based; conditions: dose 1-5 µM

SMILES	IC50 [1]	Activity (T47D [2])	Activity (T47D [3])	Activity (T47D [4])	Activity (MCF7)	Activity (T47D [5])
CC/C(=C(\c1ccccc1)c1ccc(OCCN(C)C)cc1)c1ccccc1 [TAMOXIFEN]	Not Active	Active	Active	Active	–	–
C[C@]12CC[C@@H]3c4ccc(O)cc4C[C@@H](CCCCCCCCC[S+]([O-])CCCC(F)(F)C(F)(F)F)[C@H]3[C@@H]1CC[C@@H]2O (some centres undefined)	–	Active	Active	Active	Active	–
CO[C@H]1C[C@@H]2CC[C@@H](C)[C@@](O)(O2)C(=O)C(=O)N2CCCC[C@H]2C(=O)O[C@H]([C@H](C)C[C@@H]2CC[C@@H](O)[C@H](OC)C2)CC(=O)[C@H](C)/C=C(\C)[C@@H](O)[C@@H](OC)C(=O)[C@H](C)C[C@H](C)/C=C/C=C/C=C/1C	–	–	–	–	–	Dose-Dependent Effect
